Reference: ChEMBL document CHEMBL1140610, “Matrix metalloproteinases (MMPs): chemical-biological functions and (Q)SARs” (Bioorg Med Chem, 2007)

What was measured:
[1] = target: T1, Interstitial collagenase (Homo sapiens, UniProt P03956); details: read-out: log(1/IC50) (converted)
T1 sequence (P03956 whole entry): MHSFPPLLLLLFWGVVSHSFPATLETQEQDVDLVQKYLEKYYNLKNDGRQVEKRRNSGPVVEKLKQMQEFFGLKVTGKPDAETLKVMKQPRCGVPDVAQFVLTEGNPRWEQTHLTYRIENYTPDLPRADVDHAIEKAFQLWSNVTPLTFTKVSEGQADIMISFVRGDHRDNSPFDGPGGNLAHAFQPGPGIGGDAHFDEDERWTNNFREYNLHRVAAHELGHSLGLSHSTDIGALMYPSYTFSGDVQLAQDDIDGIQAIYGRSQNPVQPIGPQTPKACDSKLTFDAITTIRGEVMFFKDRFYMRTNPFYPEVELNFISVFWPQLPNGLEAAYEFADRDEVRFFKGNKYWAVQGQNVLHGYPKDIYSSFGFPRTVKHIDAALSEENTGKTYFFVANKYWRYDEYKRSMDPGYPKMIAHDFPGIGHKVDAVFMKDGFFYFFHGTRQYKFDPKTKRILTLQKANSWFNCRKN

[2] = target: Matrix metalloproteinase-14 (Homo sapiens, UniProt P50281)
[3] = target: T2, Matrilysin (Homo sapiens, UniProt P09237); details: read-out: log(1/IC50) (converted)
T2 sequence (P09237 whole entry): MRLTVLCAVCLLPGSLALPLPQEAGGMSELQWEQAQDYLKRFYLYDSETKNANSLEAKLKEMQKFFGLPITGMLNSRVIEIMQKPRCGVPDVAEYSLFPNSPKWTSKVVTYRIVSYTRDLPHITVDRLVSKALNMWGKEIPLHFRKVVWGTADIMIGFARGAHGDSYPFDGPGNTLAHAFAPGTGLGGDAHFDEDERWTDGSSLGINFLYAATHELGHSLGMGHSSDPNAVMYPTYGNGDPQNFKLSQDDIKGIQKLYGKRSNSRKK

[4] = target: Collagenase 3 (Homo sapiens, UniProt P45452)
[5] = target: Neutrophil collagenase (Homo sapiens, UniProt P22894); details: read-out: log(1/IC50) (converted)
Neutrophil collagenase, sequence (P22894 whole entry): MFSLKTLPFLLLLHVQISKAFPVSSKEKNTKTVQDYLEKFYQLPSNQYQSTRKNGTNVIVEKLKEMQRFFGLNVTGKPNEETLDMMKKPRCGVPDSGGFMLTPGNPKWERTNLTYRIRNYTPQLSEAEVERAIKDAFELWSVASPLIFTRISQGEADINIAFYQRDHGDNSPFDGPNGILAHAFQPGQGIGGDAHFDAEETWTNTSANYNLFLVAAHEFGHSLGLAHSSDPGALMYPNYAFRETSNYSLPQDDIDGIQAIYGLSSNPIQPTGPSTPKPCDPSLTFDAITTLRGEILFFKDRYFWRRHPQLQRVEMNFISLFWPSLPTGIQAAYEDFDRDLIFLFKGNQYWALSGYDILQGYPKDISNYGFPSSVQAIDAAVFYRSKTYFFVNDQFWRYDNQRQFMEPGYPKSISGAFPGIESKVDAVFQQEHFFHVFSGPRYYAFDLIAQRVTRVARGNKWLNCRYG

Row | Compound | IC50 [2] [nM] | IC50 [3] [nM] | other results
1 | CC(C(=O)NO)N(Cc1ccc([N+](=O)[O-])cc1)S(=O)(=O)c1c(F)c(F)c(F)c(F)c1F (stereo not drawn) |  |  | IC50 [1]: 3.98 nM
2 | CCOCCC1(Oc2ccc(Oc3ccc(F)cc3)cc2)C(=O)NC(=O)NC1=O | 22.9 |  | 
3 | CNC(=O)[C@@H](Cc1ccc(OC)cc1)NC(=O)C(CC(C)C)CP(=O)(O)Cc1ccc(Cc2ccccc2)cc1 (stereo partly drawn) |  |  | IC50 [1]: 269 nM
4 | CC(N)P(=O)(O)CC(CCCc1ccccc1)C(=O)NC(Cc1c[nH]c2ccccc12)C(N)=O (stereo not drawn) |  |  | IC50 [1]: 30.9 nM
5 | CCOCCC1(Oc2ccc(Oc3ccccc3F)cc2)C(=O)NC(=O)NC1=O | 15.8 |  | 
6 | COc1ccc(S(=O)(=O)N2CC(N3C(=O)CN(C)C3=O)C[C@@H]2C(=O)NO)cc1 (stereo partly drawn) |  | 1820 | 
7 | CCOc1ccc(S(=O)(=O)N2CC(N3C(=O)CN(C)C3=O)C[C@@H]2C(=O)NO)cc1 (stereo partly drawn) |  | 7590 | 
8 | CCCOc1ccc(S(=O)(=O)N2CC(N3C(=O)CN(C)C3=O)C[C@@H]2C(=O)NO)cc1 (stereo partly drawn) |  | 2570 | 
9 | CCOCCC1(Oc2ccc(Oc3ccc(Cl)cc3)cc2)C(=O)NC(=O)NC1=O | 18.2 |  | 
10 | CCOCCC1(Oc2ccc(Oc3cccc(Cl)c3)cc2)C(=O)NC(=O)NC1=O | 120 |  | 
11 | CCOCCC1(Oc2ccc(Oc3ccc(C)cc3)cc2)C(=O)NC(=O)NC1=O | 22.9 |  | 
12 | COc1ccc(S(=O)(=O)N2CCN(C(=O)C(O)C(C)C)CC2C(=O)NO)cc1 (stereo not drawn) |  |  | IC50 [4]: 1 nM
13 | COc1ccc(S(=O)(=O)N2CCN(C(=O)c3nnsc3C)CC2C(=O)NO)cc1 (stereo not drawn) |  |  | IC50 [4]: 20.9 nM
14 | CCOCCC1(Oc2ccc(Oc3cccc(C)c3)cc2)C(=O)NC(=O)NC1=O | 50.1 |  | 
15 | CCOCCC1(Oc2ccc(Oc3ccccc3C)cc2)C(=O)NC(=O)NC1=O | 70.8 |  | 
16 | CCOCCC1(Oc2ccc(Oc3ccc(C(F)(F)F)cc3)cc2)C(=O)NC(=O)NC1=O | 151 |  | 
17 | COCCOc1ccc(S(=O)(=O)N2CC(N3C(=O)CN(C)C3=O)C[C@@H]2C(=O)NO)cc1 (stereo partly drawn) |  | 9120 | 
18 | CN1CC(=O)N(C2C[C@H](C(=O)NO)N(S(=O)(=O)c3ccc(Oc4ccccc4)cc3)C2)C1=O (stereo partly drawn) |  | 309 | 
19 | CCOCCC1(Oc2ccc(Oc3ccc(C(C)(C)C)cc3)cc2)C(=O)NC(=O)NC1=O | 6760 |  | 
20 | CCOCCC1(Oc2ccc(Oc3ccc(OC)cc3)cc2)C(=O)NC(=O)NC1=O | 219 |  | 
21 | CCOCCC1(Oc2ccc(Oc3ccc(S(C)(=O)=O)cc3)cc2)C(=O)NC(=O)NC1=O | 8710 |  | 
22 | CN1CC(=O)N(C2C[C@H](C(=O)NO)N(S(=O)(=O)c3ccc(Oc4ccncc4)cc3)C2)C1=O (stereo partly drawn) |  | 7410 | 
23 | CCOCCC1(Oc2ccc(Oc3ccc(C#N)cc3)cc2)C(=O)NC(=O)NC1=O | 200 |  | 
24 | CCOCCC1(Oc2ccc(Oc3ccc(C(=O)NC)cc3)cc2)C(=O)NC(=O)NC1=O | 646 |  | 

Row | Compound | IC50 [2] [nM] | IC50 [3] [nM] | other results
25 | COCCOC(=O)N1CCC(C(C(=O)O)N(Cc2cccnc2)S(=O)(=O)c2ccc(-c3ccc(OC)cc3)cc2)CC1 (stereo not drawn) |  |  | IC50 [5]: 3.24 nM; IC50 [4]: 3.02 nM
26 | COc1ccc(S(=O)(=O)N2CCCN(C(=O)CNOC(=O)C(C)(C)C)CC2C(=O)NO)cc1 (stereo not drawn) |  |  | IC50 [4]: 15.8 nM
27 | CCCCOc1ccc(S(=O)(=O)N2CC(N3C(=O)NC(C)(C)C3=O)C[C@@H]2C(=O)NO)cc1 (stereo partly drawn) |  | 447 | 
28 | C=CCN1CC(=O)N(C2C[C@H](C(=O)NO)N(S(=O)(=O)c3ccc(OCCC)cc3)C2)C1=O (stereo partly drawn) |  | 2570 | 
29 | C=CCN1CC(=O)N(C2C[C@H](C(=O)NO)N(S(=O)(=O)c3ccc(OCCOC)cc3)C2)C1=O (stereo partly drawn) |  | 11000 | 
30 | CCCCOc1ccc(S(=O)(=O)N2CC(N3C(=O)CN(CCC)C3=O)C[C@@H]2C(=O)NO)cc1 (stereo partly drawn) |  | 1200 | 
31 | O=C(CN(Cc1ccc([N+](=O)[O-])cc1)S(=O)(=O)c1c(F)c(F)c(F)c(F)c1F)NO |  |  | IC50 [1]: 3.02 nM
32 | CC(C)CC(C(=O)NO)N(Cc1ccccc1)S(=O)(=O)c1c(F)c(F)c(F)c(F)c1F (stereo not drawn) |  |  | IC50 [1]: 6.03 nM
33 | CC(N)P(=O)(O)CC(CSCc1ccccc1)C(=O)NC(Cc1c[nH]c2ccccc12)C(N)=O (stereo not drawn) |  |  | IC50 [1]: 14.1 nM
34 | CCCCOc1ccc(S(=O)(=O)N2CC(N3C(=O)NC(SC)C3=O)C[C@@H]2C(=O)NO)cc1 (stereo partly drawn) |  | 851 | 
35 | CC(N)P(=O)(O)CC(Cc1ccccc1)C(=O)NC(Cc1c[nH]c2ccccc12)C(N)=O (stereo not drawn) |  |  | IC50 [1]: 251 nM
36 | CCCN1CC(=O)N(C2C[C@H](C(=O)NO)N(S(=O)(=O)c3ccc(OCCOC)cc3)C2)C1=O (stereo partly drawn) |  | 11000 | 
37 | CC(C)COc1ccc(S(=O)(=O)N2CC(N3C(=O)CN(C)C3=O)C[C@@H]2C(=O)NO)cc1 (stereo partly drawn) |  | 2290 | 
38 | CCOCCC1(Oc2ccc(Oc3ccccc3Cl)cc2)C(=O)NC(=O)NC1=O | 513 |  | 
39 | CCOCCC1(Oc2ccc(Oc3ccc(Br)cc3)cc2)C(=O)NC(=O)NC1=O | 19.1 |  | 
40 | CCOCCC1(Oc2ccc(Oc3ccc(-c4ccccc4)cc3)cc2)C(=O)NC(=O)NC1=O | 36.3 |  | 
41 | CCOCCC1(Oc2ccc(Oc3ccc(C(N)=O)cc3)cc2)C(=O)NC(=O)NC1=O | 617 |  | 
42 | CCOCCC1(Oc2ccc(Oc3ccc(C(=O)N(C)C)cc3)cc2)C(=O)NC(=O)NC1=O | 9330 |  | 
43 | CC(N)P(=O)(O)CC(COCc1ccccc1)C(=O)NC(Cc1c[nH]c2ccccc12)C(N)=O (stereo not drawn) |  |  | IC50 [1]: 251 nM
44 | C=CCN1CC(=O)N(C2C[C@H](C(=O)NO)N(S(=O)(=O)c3ccc(OCCCC)cc3)C2)C1=O (stereo partly drawn) |  | 1000 | 
45 | CCOCCC1(Oc2ccc(Oc3cccc(F)c3)cc2)C(=O)NC(=O)NC1=O | 60.3 |  | 
46 | CC(N)P(=O)(O)CC(CCc1ccccc1)C(=O)NC(Cc1c[nH]c2ccccc12)C(N)=O (stereo not drawn) |  |  | IC50 [1]: 79.4 nM
47 | CCCCOc1ccc(S(=O)(=O)N2CC(N3C(=O)CN(C)C3=O)C[C@@H]2C(=O)NO)cc1 (stereo partly drawn) |  | 1580 | 
